Experiments:
D283 = experiment: cells; assay type: cell-based; conditions: D283, read-out: IC50 (in vitro toxicity)
U251 MG = experiment: Orthotopic glioblastoma study (Example 83); assay type: in vivo, mouse; conditions: athymic mice, 10 mg/kg IP once weekly for 4 weeks
Protocol: The efficacy of compounds provided by the present disclosure was evaluated using an orthotopic luciferase human glioblastoma model—U251 MG. Human glioblastoma cells were intracolonically injected (3×10^5 cells/3 μL) into athymic mice (female, 4-5 weeks-old, nu/un homozygous). Treatment began when the BLI reached a log-phase growth, at about 14 days after injection. Ten mice were assigned to each arm of the study. The mice were dosed with vehicle (IP, once weekly for 4 weeks), temozolomide (TMZ, 4 mg/kg, OG once daily for 5 days), or compound (5) (10 mg/kg, IP once weekly for 4 weeks). The tumor volume was measured using bioluminescence imaging.

[1] = system: LLCPK cells conditionally expressing hLAT1; experiment: cells; conditions: 0.5 h, read-out: LC50, concentration of test compound at which the percent surviving cells was 50%
HCT116 = experiment: In vitro cytotoxicity, HCT116; assay type: cell-based; conditions: Homo sapiens, HCT-116, read-out: IC50 (in vitro toxicity)
G55 = experiment: cells; assay type: cell-based; conditions: read-out: IC50 (in vitro toxicity)
MV411 = experiment: cells; assay type: cell-based; conditions: Homo sapiens, MV4-11, read-out: IC50 (in vitro toxicity)
U266 = experiment: cells; assay type: cell-based; conditions: Homo sapiens, U-266, read-out: IC50 (in vitro toxicity)
DBRTG = experiment: cells; assay type: cell-based; conditions: read-out: IC50 (in vitro toxicity)
[2] = system: Human prostate cancer PC3 cells; conditions: mouse, in vivo
1334 = experiment: In vitro cytotoxicity, 1334; assay type: cell-based; conditions: read-out: IC50 (in vitro toxicity)
MM1.S = experiment: cells; assay type: cell-based; conditions: Homo sapiens, read-out: IC50 (in vitro toxicity)
MDA-MB-231 [3] = experiment: Breast cancer xenograft study, IP dosing; assay type: in vivo, mouse
Protocol: The efficacy of compounds provided by the present disclosure was evaluated on a triple negative breast cancer xenograft model—MDA-MB-231. The tumors were implanted into mice and the study was initiated after the volume of the tumors was 140 mm^3. The animals were IP dosed once a week or 3 times per week for 3 weeks with either vehicle or 1.25 mg/kg, 2.5 mg/kg, or 5 mg/kg of compound (5). The tumor volume, body weight, white blood cell count, and granulocyte count were determined during the study and 20 days after the final dose was administered. […] Tumor growth remained about 90% suppressed 20 days post-dosing following the 5 mg/kg treatment regimens.

PC3 tumors = experiment: Prostate cancer xenograft study, large tumor study; assay type: in vivo, mouse
Protocol: PC3 tumors were implanted into mice and the study was initiated after the volume of the tumors was 500 mm^3. Five (5) mg/kg compound (5) was administered by IP injection three times per week for two weeks. The tumor size, body weight, white cell count, and granulocyte count were measured.
In a counterpart study, mice in which the PC3 tumor size was at least 500 mm^3 were administered either 7.5 mg/kg or 10 mg/kg compound (5) three times a week for four weeks. In these studies, the mice were first administered a dose of either 2.5 mg/kg or 1.25 mg/kg, three times per week for three weeks. The tumor size, body weight, white cell count, and granulocyte count were measured. The tumor volume for the 7.5 mg/kg dosing regimen is resented in FIGS. 8A-8D, and for the 10 mg/kg dosing regimen in FIGS. 9A-9D.

MDA-MB-231 [4] = experiment: Triple negative breast cancer study, IV dosing; assay type: in vivo, mouse; conditions: IV once a week for 8 weeks
Protocol: The efficacy of compounds provided by the present disclosure was evaluated on a triple negative breast cancer xenograft model—MDA-MB-231. Human triple negative breast cancer cells were implanted into the flank of nude mice and the study was initiated after the volume of the tumors was 150 mm^3. The animals were IV dosed once a week for 8 weeks with either vehicle or 5 mg/kg of compound (5), or 20 mg/kg compound (7). The tumor volume, body weight, white blood cell count, and granulocyte count were determined during the study and 12 days after the final dose was administered.

U251 = experiment: cells; assay type: cell-based; conditions: Homo sapiens, U-251, read-out: IC50 (in vitro toxicity)
PC3 = experiment: Prostate cancer xenograft study, IP dosing; assay type: in vivo, mouse
Protocol: The efficacy of compounds provided by the present disclosure was evaluated on a prostate cancer xenograft model—PC3. PC3 tumors were implanted into mice and the study was initiated after the volume of the tumors was 130 mm^3. The animals were IP dosed once a week or 3 times per week for 3 weeks with either vehicle or 1.25 mg/kg, 2.5 mg/kg, or 5 mg/kg of compound (5). The tumor volume, body weight, white blood cell count, and granulocyte count were determined during the study and 10 days after the final dose was administered.

KMS34 = experiment: cells; assay type: cell-based; conditions: KMS-34, read-out: IC50 (in vitro toxicity)
HS27A = experiment: cells; assay type: cell-based; conditions: HS-27A, read-out: IC50 (in vitro toxicity)
AMO1 = experiment: cells; assay type: cell-based; conditions: Homo sapiens, AMO1, read-out: IC50 (in vitro toxicity)
[5] = system: LLCPK cells conditionally expressing hLAT1
[6] = during and following treatment, all dosing regimens
[7] = 5 mg/kg IP three times per week for two weeks
[8] = 7.5 mg/kg or 10 mg/kg dosing regimens

Cc1ccc(N(CCCl)CCCl)cc1C[C@H](N)CC(=O)O [Compound 5, (3S)-3-Amino-4-[5-[bis(2-chloroethyl)amino]-2-methyl-phenyl]butanoic Acid]
IC50 (D283): < 100 µM | crossing of the BBB (U251 MG): crossed the BBB | glioblastoma tumor growth (bioluminescence imaging) (U251 MG): suppressed glioblastoma tumor growth | CC50 [1]: < 1 µM | IC50 (HCT116): < 100 µM | IC50 (G55): < 100 µM | IC50 (MV411): < 100 µM | IC50 (U266): < 100 µM | IC50 (DBRTG): < 100 µM | body weight [2]: maintained weight | myelosuppression [2]: not dectected | tumor growth suppression [2]: dose-dependent tumor growth suppression | IC50 1334: < 100 µM | IC50 (MM1.S): < 100 µM | tumor growth post-treatment (MDA-MB-231 [3]; 1.25 mg/kg and 2.5 mg/kg regimens, IP): demonstrated a dose response | growth of the tumors (MDA-MB-231 [3]; 2.5 mg/kg and 5 mg/kg dosing regimens, IP once a week or 3 times per week for 3 weeks): nearly completely suppressed | tumor growth suppression 20 days post-dosing (MDA-MB-231 [3]; 5 mg/kg treatment regimens, IP): about 90% | animal body weights (MDA-MB-231 [3]; all dosing regimens): increased | white blood cell count and granulocyte count (MDA-MB-231 [3]; [6]): remained within normal range | body weight (PC3 tumors; [7]): decreased | cell counts (white cell, granulocyte) (PC3 tumors; [7]): remained within the normal range | body weights (PC3 tumors; [8]): remained about the same | cell counts (white cell, granulocyte) (PC3 tumors; [8]): remained within the normal range | tumor growth rate, large tumors (PC3 tumors; tumors 500 mm3, 5 mg/kg IP three times per week for two weeks): growth rate slowed for some large tumors | PC3 tumor growth, large tumors (PC3 tumors; tumors at least 500 mm3, 7.5 mg/kg or 10 mg/kg three times a week for four weeks): slowed in many of the animals and in some the size of the tumor decreased | body weight (MDA-MB-231 [4]): maintained weight | myelosuppression (MDA-MB-231 [4]): not dectected | tumor growth suppression (MDA-MB-231 [4]; nude mice, 5 mg/kg compound (5), 20 mg/kg compound (7)): dose-dependent tumor growth suppression | IC50 (U251): < 100 µM | tumor growth post-treatment (PC3; 1.25 mg/kg, 2.5 mg/kg, and 5 mg/kg regimens, IP): demonstrated a dose response | growth of the tumors (PC3; 5 mg/kg dosing regimen, IP once a week or 3 times per week for 3 weeks): nearly completely suppressed | animal body weights (PC3; all dosing regimens): remained the same increased | white blood cell count and granulocyte count (PC3; [6]): remained within normal range | IC50 (KMS34): > 100 µM | IC50 (HS27A): > 100 µM | IC50 (AMO1): > 100 µM | IC50, S isomer compared with R isomer [5]: significantly less than the IC50 of the R isomer

Reference: patent US10017459B2, “β-substituted β-amino acids and analogs as chemotherapeutic agents and uses thereof” (Quadriga Biosciences, Inc., priority 2015, dated 2018)
